Source: patent publication US11072607B2, “Inhibitors of RIP1 kinase and methods of use thereof” (priority 2016, dated 2021)

Each compound was assayed against human RIP1 kinase domain (2-375) (Homo sapiens (Human), UniProt Q13546) (assay: RIP1 kinase inhibition assay (biochemical, Transcreener ADP assay)). Conditions: RIP1 Ki, tight-binding apparent inhibition constant (Ki app, Morrison equation); 50 nM enzyme, 50 uM ATP, 2 hours incubation, fluorescence polarization.
human RIP1 kinase domain (2-375), sequence (Q13546 2-375): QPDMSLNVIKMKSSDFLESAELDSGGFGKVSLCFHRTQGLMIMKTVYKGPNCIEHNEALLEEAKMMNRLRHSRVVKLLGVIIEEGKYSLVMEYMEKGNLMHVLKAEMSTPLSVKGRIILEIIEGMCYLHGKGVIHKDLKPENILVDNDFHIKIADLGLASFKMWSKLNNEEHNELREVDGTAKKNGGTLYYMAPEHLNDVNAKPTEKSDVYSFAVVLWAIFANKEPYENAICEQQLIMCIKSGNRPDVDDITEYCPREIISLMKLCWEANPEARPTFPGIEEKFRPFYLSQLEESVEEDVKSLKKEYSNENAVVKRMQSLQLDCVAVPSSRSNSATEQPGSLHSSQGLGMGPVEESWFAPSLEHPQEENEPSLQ
Method: Example 45: RIP1 Kinase Inhibition Assays (Biochemical Assay)
The compounds of the present invention were tested for their capacity to inhibit RIP1K activity as described below.
The ability of the receptor interacting protein kinase (RIPK1) to catalyze the hydrolysis of adenosine-5′-triphosphate (ATP) is monitored using the Transcreener ADP (adenosine-5′-diphosphate) assay (BellBrook Labs). Purified human RIP1 kinase domain (2-375) (50 nM) derived from a baculovirus-infected insect cell expression system is incubated with test compounds for 2 hours in 50 mM Hepes buffer (pH 7.5) containing 30 mM MgCl2, 1 mM dithiothreitol, 50 uM ATP, 0.002% Brij-35, and 0.5% dimethyl sulfoxide (DMSO). Reactions are quenched by the addition of 1× Bell Brooks Stop buffer B (20 mM Hepes (ph 7.5), 40 mM ethylenediaminetetraacetic acid and 0.02% Brij-35) containing an additional 12 mM EDTA and 55 ug/mL ADP2 antibody and 4 nM ADP-AlexaFluor® 633 tracer. The tracer bound to the antibody is displaced by the ADP generated during the RIP1K reaction, which causes a decrease in fluorescence polarization that is measured by laser excitation at 633 nm with a FP microplate reader M1000. Fractional activity was plotted against test article concentration. Using Genedata Screener software (Genedata; Basel, Switzerland), the data were fit to the tight-binding apparent inhibition constant (Ki^app) Morrison equation [Williams, J. W. and Morrison, J. F. (1979) The kinetics of reversible tight-binding inhibition. Methods Enzymol 63: 437-67]. The following equation was used to calculate fractional activity and Ki^app: […]
where [E]T and [I]T are the total concentrations of active enzyme and test article, respectively. […]
Work on `CN1C(=O)[C@@H](NC(=O)c2nc3n(n2)[C@H](c2ccccc2)C[C@@H]3F)CCn2nccc21` (mixture of isomers) [Example #29, Rac-(5S,7S)-7-fluoro-5-phenyl-N-[(6S)-4-methyl-5-oxo-7,8-dihydro-6H-pyrazolo[1,5-a][1,3]diazepin-6-yl]-6,7-dihydro-5H-pyrrolo[1,2-b][1,2,4]triazole-2-carboxamide] yielded a Ki of 43 nM. Compound `O=C(N[C@H]1CCc2cc(F)cc(F)c2NC1=O)c1nc2n(n1)[C@@H](c1ccccc1)C[C@@H]2F` (mixture of isomers) [Example #31, Rac-(5R,7S)-7-fluoro-5-phenyl-N-[(3S)-7,9-difluoro-2-oxo-1,3,4,5-tetrahydro-1-benzazepin-3-yl]-6,7-dihydro-5H-pyrrolo[1,2-b][1,2,4]triazole-2-carboxamide] has a Ki of 15 nM. With `CN1C(=O)[C@@H](NC(=O)c2nc3n(n2)[C@@H](c2ccccc2)C[C@@H]3F)COc2ccccc21` (mixture of isomers) [Example #32, rac-(5R,7S)-7-fluoro-5-phenyl-N-[(3S)-5-methyl-4-oxo-2,3-dihydro-1,5-benzoxazepin-3-yl]-6,7-dihydro-5H-pyrrolo[1,2-b][1,2,4]triazole-2-carboxamide] the Ki was 14 nM. `CN1C(=O)[C@@H](NC(=O)c2nc3n(n2)[C@H](c2ccccc2)C[C@@H]3F)CCn2nccc21` (racemic) [Example #38, rac-(5S,7S)-7-fluoro-5-phenyl-N-[rac-(6S)-4-methyl-5-oxo-7,8-dihydro-6H-pyrazolo[1,5-a][1,3]diazepin-6-yl]-6,7-dihydro-5H-pyrrolo[1,2-b][1,2,4]triazole-2-carboxamide] showed a Ki of 24 nM. With `Cc1cc2n(n1)CC[C@H](NC(=O)c1nc3n(n1)[C@H](c1ccccc1)C[C@@H]3F)C(=O)N2C` (racemic) [Example #39, rac-(5S,7S)-7-fluoro-5-phenyl-N-[rac-(6S)-2,4-dimethyl-5-oxo-7,8-dihydro-6H-pyrazolo[1,5-a][1,3]diazepin-6-yl]-6,7-dihydro-5H-pyrrolo[1,2-b][1,2,4]triazole-2-carboxamide] the Ki was 27 nM. `Cc1cc2n(n1)CC[C@H](NC(=O)c1nc3n(n1)[C@@H](c1ccccc1)CC3(F)F)C(=O)N2C` (racemic) [Example #41, rac-(5R)-7,7-difluoro-5-phenyl-N-[rac-(6S)-2,4-dimethyl-5-oxo-7,8-dihydro-6H-pyrazolo[1,5-a][1,3]diazepin-6-yl]-5,6-dihydropyrrolo[1,2-b][1,2,4]triazole-2-carboxamide] was tested, and the Ki was 35 nM. `CN1C(=O)[C@@H](NC(=O)c2nc3n(n2)[C@@H](c2ccccc2)CC3(F)F)COc2ccccc21` (racemic) [Example #42, rac-(5R)-7,7-difluoro-5-phenyl-N-[rac-(3S)-5-methyl-4-oxo-2,3-dihydro-1,5-benzoxazepin-3-yl]-5,6-dihydropyrrolo[1,2-b][1,2,4]triazole-2-carboxamide] was tested, and the Ki was 5 nM. For `CN1C(=O)[C@@H](NC(=O)c2nc3n(n2)[C@@H](c2ccccc2)CC3(F)F)CCn2nccc21` (racemic) [Example #43, rac-(5R)-7,7-difluoro-5-phenyl-N-[rac-(6S)-4-methyl-5-oxo-7,8-dihydro-6H-pyrazolo[1,5-a][1,3]diazepin-6-yl]-5,6-dihydropyrrolo[1,2-b][1,2,4]triazole-2-carboxamide], the Ki was 28 nM. `CN1C(=O)[C@@H](NC(=O)c2nc3n(n2)[C@H](c2ccccc2)C[C@@H]3F)COc2ccccc21` (single isomer, unassigned) [Example #30] gave a Ki of 18 nM. Work on `CN1C(=O)[C@@H](NC(=O)c2nc3n(n2)[C@H](c2ccccc2)C[C@@H]3F)COc2ccccc21` (single isomer, unassigned) [Example #40] yielded a Ki of 5 nM.

Same assay, conditions: tight-binding apparent inhibition constant (Ki app, Morrison equation); 50 nM enzyme, 50 uM ATP, 2 hours incubation, fluorescence polarization; read-out: RIP1 Ki
For `CN1C(=O)[C@@H](NC(=O)c2nc3n(n2)CC[C@H]3c2ccccc2F)CCn2nccc21` (single isomer, unassigned) [Example #7], the Ki was 22 nM. `Cc1cc2n(n1)CC[C@H](NC(=O)c1nc3n(n1)CC[C@H]3c1ccccc1F)C(=O)N2C` (single isomer, unassigned) [Example #8] was tested, and the Ki was 18 nM. `COc1cc2c(cn1)N(C)C(=O)[C@@H](NC(=O)c1nc3n(n1)[C@H](c1ccccc1F)CC3)CC2` (single isomer, unassigned) [Example #11] showed a Ki of 11 nM. `O=C(N[C@H]1CCc2ncccc2NC1=O)c1nc2n(n1)[C@@H](c1ccccc1)CC2` (single isomer, unassigned) [Example #13] was tested, and the Ki was 41 nM. Compound `O=C(N[C@H]1CCc2ncccc2NC1=O)c1nc2n(n1)[C@H](c1ccccc1F)CC2` (single isomer, unassigned) [Example #14] has a Ki of 19 nM. With `CN1C(=O)[C@@H](NC(=O)c2nc3n(n2)CC[C@H]3c2ccccc2F)CCc2ncccc21` (single isomer, unassigned) [Example #15] the Ki was 42 nM. With `CN1C(=O)[C@@H](NC(=O)c2nc3n(n2)[C@@H](c2ccccc2F)CC3)CCc2ncccc21` (single isomer, unassigned) [Example #16] the Ki was 29 nM. For `CN1C(=O)[C@@H](NC(=O)c2nc3n(n2)CC[C@H]3c2ccccc2)CCc2ncccc21` (single isomer, unassigned) [Example #17], the Ki was 37 nM. `CN1C(=O)[C@@H](NC(=O)c2nc3n(n2)[C@H](c2ccccc2)CC3)CCc2ncccc21` (single isomer, unassigned) [Example #18] was tested, and the Ki was 44 nM. With `CN1C(=O)[C@@H](NC(=O)c2ncn(Cc3ccccc3)n2)CCc2nn(C)cc21` (single isomer, unassigned) [Example #20] the Ki was 46 nM. `CN1C(=O)[C@@H](NC(=O)c2ncn(Cc3ccccc3F)n2)CCc2nn(C)cc21` (single isomer, unassigned) [Example #21] gave a Ki of 26 nM. In the case of `CN1C(=O)[C@@H](NC(=O)c2ncn(Cc3ccccc3)n2)CCc2c1cnn2C` (single isomer, unassigned) [Example #22], the Ki is reported as 14 nM. Compound `CN1C(=O)[C@@H](NC(=O)c2ncn(Cc3ccccc3F)n2)CCc2c1cnn2C` (single isomer, unassigned) [Example #23] has a Ki of 13 nM. In the case of `O=C(N[C@H]1CCc2cc(F)cc(F)c2NC1=O)c1nc2n(n1)[C@@H](c1ccccc1)C[C@H]2F` (single isomer, unassigned) [Example #33], the Ki is reported as 13 nM. `O=C(N[C@H]1CCc2cc(F)cc(F)c2NC1=O)c1nc2n(n1)[C@H](c1ccccc1)C[C@H]2F` (single isomer, unassigned) [Example #34] gave a Ki of 31 nM. `CN1C(=O)[C@@H](NC(=O)c2nc3n(n2)[C@H](c2ccccc2)C[C@H]3F)COc2ccccc21` (single isomer, unassigned) [Example #35] showed a Ki of 15 nM. Compound `CN1C(=O)[C@@H](NC(=O)c2nc3n(n2)[C@@H](c2ccccc2)C[C@@H]3F)CCn2nccc21` (single isomer, unassigned) [Example #36] has a Ki of 32 nM. Work on `Cc1cc2n(n1)CC[C@H](NC(=O)c1nc3n(n1)[C@@H](c1ccccc1)C[C@@H]3F)C(=O)N2C` (single isomer, unassigned) [Example #37] yielded a Ki of 30 nM. In the case of `CCC(F)(F)[C@@H]1CCc2nc(C(=O)N[C@H]3COc4ccccc4N(C)C3=O)nn21` (single isomer, unassigned) [Example #44], the Ki is reported as 7 nM. With `CN1C(=O)[C@@H](NC(=O)c2cc3c(cn2)cnn3CC(C)(F)F)COc2ccccc21` [Example #2, 1-(2,2-difluoropropyl)-N-[(3S)-5-methyl-4-oxo-2,3-dihydro-1,5-benzoxazepin-3-yl]pyrazolo[4,3-c]pyridine-6-carboxamide] the Ki was 29 nM. With `CN1C(=O)[C@@H](NC(=O)c2ncc3cnn(CC(C)(F)F)c3n2)COc2ccccc21` [Example #3, 1-(2,2-difluoropropyl)-N-[(3S)-5-methyl-4-oxo-2,3-dihydro-1,5-benzoxazepin-3-yl]pyrazolo[3,4-d]pyrimidine-6-carboxamide] the Ki was 35 nM. `CN1C(=O)[C@@H](NC(=O)c2ncc3cnn(C4CC4)c3n2)COc2ccccc21` [Example #4, 1-cyclopropyl-N-[(3S)-5-methyl-4-oxo-2,3-dihydro-1,5-benzoxazepin-3-yl]pyrazolo[3,4-d]pyrimidine-6-carboxamide] gave a Ki of 22 nM. In the case of `O=C(N[C@H]1CCc2cc(F)cc(F)c2NC1=O)c1cc2n(n1)CCOC2c1ccccc1` (stereo partly drawn) [Example #5, 4-phenyl-N-[(3S)-7,9-difluoro-2-oxo-1,3,4,5-tetrahydro-1-benzazepin-3-yl]-6,7-dihydro-4H-pyrazolo[5,1-c][1,4]oxazine-2-carboxamide], the Ki is reported as 11 nM. For `CN1C(=O)[C@@H](NC(=O)c2ncn(Cc3ccccc3)n2)CCn2nc(CC3CCOC3)cc21` (stereo partly drawn) [Example #19, 1-benzyl-N-[(6S)-4-methyl-5-oxo-2-(tetrahydrofuran-3-ylmethyl)-7,8-dihydro-6H-pyrazolo[1,5-a][1,3]diazepin-6-yl]-1,2,4-triazole-3-carboxamide], the Ki was 16 nM.
